What was measured:
Glucocorticoid receptor [1] = biological target: T1, Glucocorticoid receptor (Homo sapiens, UniProt P04150)
T1 sequence (P04150 whole entry): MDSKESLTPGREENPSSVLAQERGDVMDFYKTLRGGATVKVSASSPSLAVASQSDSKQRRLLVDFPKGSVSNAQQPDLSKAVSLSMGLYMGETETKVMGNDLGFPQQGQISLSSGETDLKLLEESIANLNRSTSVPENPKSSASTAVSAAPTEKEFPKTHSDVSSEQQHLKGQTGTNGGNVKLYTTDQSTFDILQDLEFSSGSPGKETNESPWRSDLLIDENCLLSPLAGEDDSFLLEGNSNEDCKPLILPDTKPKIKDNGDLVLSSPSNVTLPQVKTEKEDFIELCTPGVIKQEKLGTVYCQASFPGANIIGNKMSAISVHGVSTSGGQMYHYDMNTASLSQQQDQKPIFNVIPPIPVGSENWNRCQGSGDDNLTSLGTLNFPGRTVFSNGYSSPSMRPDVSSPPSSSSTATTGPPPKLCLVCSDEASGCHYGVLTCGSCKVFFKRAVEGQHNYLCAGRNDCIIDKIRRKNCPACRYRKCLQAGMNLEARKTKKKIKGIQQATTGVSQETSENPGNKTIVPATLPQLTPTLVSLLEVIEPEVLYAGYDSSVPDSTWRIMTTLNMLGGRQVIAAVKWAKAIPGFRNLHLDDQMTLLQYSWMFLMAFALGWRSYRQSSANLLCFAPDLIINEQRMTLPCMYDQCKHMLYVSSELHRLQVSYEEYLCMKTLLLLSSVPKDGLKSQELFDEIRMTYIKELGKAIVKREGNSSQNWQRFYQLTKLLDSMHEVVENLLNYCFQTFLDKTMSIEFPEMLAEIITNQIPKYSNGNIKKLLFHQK
Description: Transrepression activity at glucocorticoid receptor in human whole blood assessed as repression of IL-1-induced TNF-alpha production after 4 hrs by ELISA

Glucocorticoid receptor [2] = biological target: T1, Glucocorticoid receptor; remark: listed apart in the source
Description: Binding affinity to human GR

Glucocorticoid receptor [3] = biological target: T1, Glucocorticoid receptor; test: Transrepression activity at glucocorticoid receptor in human SW1353 cells assessed as repression of IL-1-induced MMP-13 production after 24 hrs by ELISA; assay type: cell-based
Estrogen receptor beta = Estrogen receptor beta (Homo sapiens, UniProt Q92731); test: Binding affinity to human ER-beta
Chain of Estrogen receptor beta (Q92731 whole entry): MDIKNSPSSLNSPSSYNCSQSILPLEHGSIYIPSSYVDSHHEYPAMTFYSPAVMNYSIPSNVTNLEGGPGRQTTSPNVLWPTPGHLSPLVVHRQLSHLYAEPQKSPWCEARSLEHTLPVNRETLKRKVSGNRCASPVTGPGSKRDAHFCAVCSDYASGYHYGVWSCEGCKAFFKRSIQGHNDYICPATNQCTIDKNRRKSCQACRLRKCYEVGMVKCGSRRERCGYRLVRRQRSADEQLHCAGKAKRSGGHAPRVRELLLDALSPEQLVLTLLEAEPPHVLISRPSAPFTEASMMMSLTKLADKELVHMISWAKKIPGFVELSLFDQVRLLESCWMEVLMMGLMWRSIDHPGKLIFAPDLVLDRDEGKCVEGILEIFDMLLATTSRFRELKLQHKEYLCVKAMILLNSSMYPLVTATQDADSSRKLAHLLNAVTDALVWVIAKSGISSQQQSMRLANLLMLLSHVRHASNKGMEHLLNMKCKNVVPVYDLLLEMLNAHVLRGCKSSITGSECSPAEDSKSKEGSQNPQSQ

Progesterone receptor = biological target: T2, Progesterone receptor (Homo sapiens, UniProt P06401); test: Binding affinity to human PR
T2 sequence (P06401 whole entry): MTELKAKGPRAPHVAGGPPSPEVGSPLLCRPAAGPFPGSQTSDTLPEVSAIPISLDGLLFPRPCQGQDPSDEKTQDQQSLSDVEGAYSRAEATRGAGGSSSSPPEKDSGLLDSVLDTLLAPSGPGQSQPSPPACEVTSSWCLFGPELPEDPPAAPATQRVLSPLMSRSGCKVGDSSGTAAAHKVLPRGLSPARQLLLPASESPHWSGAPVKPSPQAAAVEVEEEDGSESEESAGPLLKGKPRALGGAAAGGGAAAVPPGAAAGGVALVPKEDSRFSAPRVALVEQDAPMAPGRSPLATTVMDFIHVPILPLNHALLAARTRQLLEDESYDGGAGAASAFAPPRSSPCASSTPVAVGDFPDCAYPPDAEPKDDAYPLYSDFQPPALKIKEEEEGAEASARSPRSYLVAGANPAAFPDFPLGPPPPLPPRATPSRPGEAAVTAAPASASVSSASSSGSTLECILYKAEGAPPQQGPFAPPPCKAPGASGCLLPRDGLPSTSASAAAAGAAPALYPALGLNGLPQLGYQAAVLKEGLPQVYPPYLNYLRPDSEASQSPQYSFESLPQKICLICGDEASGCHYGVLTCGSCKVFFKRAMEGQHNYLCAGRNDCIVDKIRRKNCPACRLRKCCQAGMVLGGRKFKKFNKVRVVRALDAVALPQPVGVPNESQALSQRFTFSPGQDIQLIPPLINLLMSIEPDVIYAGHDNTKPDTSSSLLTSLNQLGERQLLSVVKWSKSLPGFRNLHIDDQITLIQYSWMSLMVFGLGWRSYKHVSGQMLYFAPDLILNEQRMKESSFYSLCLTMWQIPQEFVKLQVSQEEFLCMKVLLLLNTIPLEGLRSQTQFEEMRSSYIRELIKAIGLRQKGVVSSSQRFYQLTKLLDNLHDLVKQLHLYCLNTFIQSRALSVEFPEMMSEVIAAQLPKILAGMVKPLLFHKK

Estrogen receptor = biological target: T3, Estrogen receptor (Homo sapiens, UniProt P03372); test: Binding affinity to human ER-alpha
T3 sequence (P03372 whole entry): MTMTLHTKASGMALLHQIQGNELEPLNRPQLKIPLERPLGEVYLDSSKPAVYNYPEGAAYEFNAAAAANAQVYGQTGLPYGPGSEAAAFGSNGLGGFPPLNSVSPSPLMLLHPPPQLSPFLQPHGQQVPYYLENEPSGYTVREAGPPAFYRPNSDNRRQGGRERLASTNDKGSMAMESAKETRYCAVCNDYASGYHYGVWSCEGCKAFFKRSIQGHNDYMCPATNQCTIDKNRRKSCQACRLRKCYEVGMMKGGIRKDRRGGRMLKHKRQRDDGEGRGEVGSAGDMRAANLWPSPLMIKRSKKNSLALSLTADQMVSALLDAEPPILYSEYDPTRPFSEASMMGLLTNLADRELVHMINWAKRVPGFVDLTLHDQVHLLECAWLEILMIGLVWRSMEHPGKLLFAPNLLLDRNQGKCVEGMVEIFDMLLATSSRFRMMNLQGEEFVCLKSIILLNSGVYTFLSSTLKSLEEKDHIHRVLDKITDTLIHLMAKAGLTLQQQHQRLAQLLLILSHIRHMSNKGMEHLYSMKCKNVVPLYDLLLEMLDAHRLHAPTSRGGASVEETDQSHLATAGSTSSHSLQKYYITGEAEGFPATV

Androgen receptor = biological target: T4, Androgen receptor (Homo sapiens, UniProt P10275); test: Binding affinity to human AR
T4 sequence (P10275 whole entry): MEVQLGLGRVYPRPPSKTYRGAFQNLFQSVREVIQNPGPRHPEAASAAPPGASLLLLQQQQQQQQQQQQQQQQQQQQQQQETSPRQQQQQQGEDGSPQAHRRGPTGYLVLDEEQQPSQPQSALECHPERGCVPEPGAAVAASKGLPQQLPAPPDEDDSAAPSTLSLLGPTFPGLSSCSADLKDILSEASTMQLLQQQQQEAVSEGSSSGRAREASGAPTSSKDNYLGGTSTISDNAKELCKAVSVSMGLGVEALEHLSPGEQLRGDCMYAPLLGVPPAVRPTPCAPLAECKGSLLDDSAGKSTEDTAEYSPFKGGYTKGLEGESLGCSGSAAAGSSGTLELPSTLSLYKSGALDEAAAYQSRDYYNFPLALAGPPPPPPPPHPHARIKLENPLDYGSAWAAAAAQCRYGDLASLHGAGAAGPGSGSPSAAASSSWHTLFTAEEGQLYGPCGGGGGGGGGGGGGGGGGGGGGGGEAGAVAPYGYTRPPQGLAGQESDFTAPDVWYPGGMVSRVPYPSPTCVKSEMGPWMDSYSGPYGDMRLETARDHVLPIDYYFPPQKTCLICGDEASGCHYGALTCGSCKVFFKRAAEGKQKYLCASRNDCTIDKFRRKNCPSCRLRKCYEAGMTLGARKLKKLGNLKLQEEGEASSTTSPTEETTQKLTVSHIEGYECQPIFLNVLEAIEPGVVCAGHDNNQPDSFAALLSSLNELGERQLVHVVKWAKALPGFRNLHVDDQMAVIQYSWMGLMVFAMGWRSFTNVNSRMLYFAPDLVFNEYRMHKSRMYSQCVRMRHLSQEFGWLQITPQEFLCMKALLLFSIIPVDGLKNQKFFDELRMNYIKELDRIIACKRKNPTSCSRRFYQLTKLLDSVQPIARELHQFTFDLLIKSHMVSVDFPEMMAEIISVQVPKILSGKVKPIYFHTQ

SMILES	IC50 (Glucocorticoid receptor [1]) [nM]	IC50 (Glucocorticoid receptor [2]) [nM]	IC50 (Glucocorticoid receptor [3]) [nM]	IC50 (Estrogen receptor beta) [nM]	IC50 (Progesterone receptor) [nM]	IC50 (Estrogen receptor) [nM]	IC50 (Androgen receptor) [nM]
CC[C@@]12C[C@@](C)(O)[C@](O)(c3ccccc3)C[C@H]1C=Cc1cc(O)ccc12	400	0.3	4	–	–	–	–
CCC[C@]1(O)C[C@H]2CCc3cc(O)ccc3[C@]2(CC)C[C@@]1(C)O	–	20.1	> 5000	–	–	–	–
CC[C@@]12C[C@@](C)(O)[C@](O)(c3cccnc3)C[C@H]1CCc1cc(O)ccc12	–	22	80	–	–	–	–
CC[C@@]12C[C@@](C)(O)[C@](O)(c3ccccc3)C[C@H]1C[C@@H](O)c1cc(O)ccc12	–	79	> 5000	–	–	–	–
CC[C@@]12C[C@@](C)(O)[C@](O)(CC)C[C@H]1CCc1cc(O)ccc12 (mixture of isomers)	–	47	> 5000	–	–	–	–
CC[C@@]12C[C@@](C)(O)[C@](O)(c3ccccc3)C[C@H]1C=C(C)c1cc(O)ccc12	43	0.67	0.6	–	–	–	–
CC[C@@]12C[C@@H](O)[C@](O)(c3ccccc3)C[C@H]1CCc1cc(O)ccc12	–	–	> 5000	–	–	–	–
CC[C@@]12C[C@@](C)(O)[C@](O)(c3ccccc3)C[C@H]1CCc1cc(O)ccc12	109	0.6	3.5	> 3200	321	> 3200	300
CC[C@@]12C[C@](C)(O)[C@](O)(c3ccccc3)C[C@H]1CCc1cc(O)ccc12	–	38	> 5000	–	–	–	–
CC[C@@]12C[C@@](C)(O)[C@](O)(c3nccs3)C[C@H]1CCc1cc(O)ccc12	83	0.79	1.5	–	–	–	–
C=C[C@@]1(O)C[C@@]2(CC)c3ccc(O)cc3CC[C@@H]2C[C@@]1(O)c1ccccc1	–	5.2	> 5000	–	–	–	–
C/C=C/[C@]1(O)C[C@H]2CCc3cc(O)ccc3[C@]2(CC)C[C@@]1(C)O (mixture of isomers)	–	2.1	6	–	–	–	–
C=C[C@]1(O)C[C@H]2CCc3cc(O)ccc3[C@]2(CC)C[C@@]1(C)O (mixture of isomers)	–	12.1	650	–	–	–	–
CC#C[C@]1(O)C[C@H]2CCc3cc(O)ccc3[C@]2(CC)C[C@@]1(C)O	–	1.5	1.9	–	–	–	–
C=CC[C@]1(O)C[C@H]2CCc3cc(O)ccc3[C@]2(CC)C[C@@]1(C)O	–	35.4	> 5000	–	–	–	–
CC[C@@]12C[C@@](C)(O)[C@](O)(c3ccncc3)C[C@H]1CCc1cc(O)ccc12	–	9.1	100	–	–	–	–
CC[C@@]12C[C@@](C)(O)[C@@](C)(O)C[C@H]1CCc1cc(O)ccc12	–	211	–	–	–	–	–
CC[C@@]12C[C@](O)(CC)[C@](O)(c3ccccc3)C[C@H]1CCc1cc(O)ccc12	–	1.2	6	–	–	–	–
CC[C@@]12C[C@@](C)(O)[C@](O)(c3ccccc3)C[C@H]1CC(=O)c1cc(O)ccc12	72.5	2.5	5	–	–	–	–
CC[C@@]12CC[C@](O)(c3ccccc3)C[C@H]1CCc1cc(O)ccc12	–	–	> 5000	–	–	–	–
CC[C@@]12C[C@@](C)(O)[C@](O)(c3ccc(C)cc3)C[C@H]1CCc1cc(O)ccc12	–	1.3	12	–	–	–	–
CC[C@@]12C[C@@](C)(O)[C@](O)(c3ccccc3)C[C@H]1CC(=O)c1cc(OC(=O)c3ccccc3)ccc12	–	1.7	28	–	–	–	–
Cc1noc(=O)c2ccc(NC(=O)C(O)(CC3(c4cc(F)ccc4Cl)CCC3)C(F)(F)F)cc12 (racemic)	1000	0.4	7.5	> 100000	0.2	> 100000	40
CC[C@@]12C[C@@](C)(O)[C@](O)(c3ccccn3)C[C@H]1CCc1cc(O)ccc12	167	1.5	1.5	–	–	–	–

From ChEMBL document CHEMBL3421549, “2-Aryl-3-methyloctahydrophenanthrene-2,3,7-triols as potent dissociated glucocorticoid receptor agonists” (J Med Chem, 2015)
